30 compounds from ChEMBL document CHEMBL6083266, “Diastereomeric pure pyrazolyl-indolyl dihydrofurans: Unveiling isomeric selectivity in antibacterial action via in vitro and in silico insights” (Bioorg Med Chem Lett, 2024) can be followed below.

Series [1] concerns Staphylococcus aureus. The series can be described thus: Antibacterial activity against methicillin-resistant Staphylococcus aureus. Type of series: functional.
Series [2] can be described thus: Cytotoxicity against mouse fibroblast cells assessed as cell viability at […] (reference value: 90.23 %). Type of series: toxicity, cell-based. The arrangement: dose or concentration left out as unconfirmed. The note with it: read-out: Activity.
The test system of another series is Pseudomonas aeruginosa. The series can be described thus: Antimicrobial activity against Pseudomonas aeruginosa by serial dilution method. Type of series: functional.
The test system of series [3] is Staphylococcus aureus. The series can be described thus: Antimicrobial activity against Staphylococcus aureus by serial dilution method. Type of series: functional.
The test system of another series is Listeria monocytogenes. Briefly: Antimicrobial activity against Listeria monocytogenes by serial dilution method. Type of series: functional.
A further series concerns Salmonella typhi. The series can be described thus: Antimicrobial activity against Salmonella typhi by serial dilution method. The note with it: Salmonella enterica. Type of series: functional, Salmonella enterica subsp. enterica serovar Typhi.
Another series relates to Bacillus cereus. Briefly: Antimicrobial activity against Bacillus cereus by serial dilution method. Type of series: functional.
Another series relates to Escherichia coli. The series can be described thus: Antimicrobial activity against Escherichia coli by serial dilution method. Type of series: functional.
Another series has as its system Candida albicans. The series can be described thus: Antimicrobial activity against Candida albicans by serial dilution method. Type of series: functional.
For another series, the system named is Shigella flexneri. The series can be described thus: Antimicrobial activity against Shigella flexneri by serial dilution method. Type of series: functional.

The structures appear in SMILES notation. Values after ≈ are worked out from the molar mass of the structure shown.

Consider `CC(=O)/C(=C\c1cn(CC(=O)N2CCCCC2)c2ccccc12)n1c([N+](=O)[O-])cnc1C`, for which the MIC against Staphylococcus aureus [1] came to 1 µg/mL (≈ 2.3 µM).

For the compound `CCOC(=O)C1(C(=O)OCC)C[C@@H](c2c[nH]c3ccccc23)O[C@H]1c1cn(-c2ccccc2)nc1-c1ccccc1`, the viability in series [2] is 93.2%.

Consider `CCOC(=O)C1(C(=O)OCC)C[C@@H](c2c[nH]c3ccc(Cl)cc23)O[C@H]1c1cn(-c2ccccc2)nc1-c1ccc(OC)cc1`, for which, in series [2], the viability was determined as 91.4%.

Consider `CCOC(=O)C1(C(=O)OCC)C[C@@H](c2c[nH]c3ccc(Cl)cc23)O[C@H]1c1cn(-c2ccccc2)nc1-c1ccccc1`, for which, in [2], the viability was 94.3%.

For `CCOC(=O)C1(C(=O)OCC)C[C@@H](c2c[nH]c3ccc(Cl)cc23)O[C@H]1c1cn(-c2ccccc2)nc1-c1ccc(C)cc1`, the viability in [2] is 97.6%.

Consider `CCOC(=O)C1(C(=O)OCC)C[C@@H](c2c[nH]c3ccc(C)cc23)O[C@H]1c1cn(-c2ccccc2)nc1-c1ccc(OC)cc1`, for which the viability in series [2] amounted to 93.5%.

For the compound `CCOC(=O)C1(C(=O)OCC)C[C@@H](c2c[nH]c3ccccc23)O[C@H]1c1cn(-c2ccccc2)nc1-c1ccc(F)cc1`, in series [2], the viability amounted to 99.1%.

On to `CCOC(=O)C1(C(=O)OCC)C[C@@H](c2c[nH]c3ccc(Cl)cc23)O[C@H]1c1cn(-c2ccccc2)nc1-c1ccc(Cl)cc1`, for which the viability in series [2] turned out to be 95.2%.

For `CCOC(=O)C1(C(=O)OCC)C[C@@H](c2c[nH]c3ccc(F)cc23)O[C@H]1c1cn(-c2ccccc2)nc1-c1ccc(F)cc1`, in series [2], the viability stood at 96.2%.

Regarding `CCOC(=O)C1(C(=O)OCC)C[C@@H](c2c[nH]c3ccc(F)cc23)O[C@H]1c1cn(-c2ccccc2)nc1-c1ccccc1`, the viability in [2] stood at 95.7%.

Take `CCOC(=O)C1(C(=O)OCC)C[C@@H](c2c[nH]c3ccccc23)O[C@@H]1c1cn(-c2ccccc2)nc1-c1ccc(Cl)cc1`: the MIC turned out to be 3.12 µg/mL (≈ 5.35 µM) in the series on Pseudomonas aeruginosa; 6.25 µg/mL (≈ 10.7 µM) in the series on Staphylococcus aureus [3]; 12.5 µg/mL (≈ 21.4 µM) with Listeria monocytogenes; 6.25 µg/mL (≈ 10.7 µM) against Salmonella typhi; 6.25 µg/mL (≈ 10.7 µM) against Bacillus cereus; 6.25 µg/mL (≈ 10.7 µM) with Escherichia coli. Besides, the MIC against Candida albicans and with Shigella flexneri was 12.5 µg/mL (≈ 21.4 µM) throughout.

Take `CCOC(=O)C1(C(=O)OCC)C[C@@H](c2c[nH]c3ccc(C)cc23)O[C@H]1c1cn(-c2ccccc2)nc1-c1ccccc1`: the viability in [2] is 92.3%.

Consider `CCOC(=O)C1(C(=O)OCC)C[C@@H](c2c[nH]c3ccccc23)O[C@H]1c1cn(-c2ccccc2)nc1-c1ccc(Cl)cc1`, for which the viability in series [2] was determined as 98.1%. Further, the minimum inhibitory concentration (MIC) was found to be 1.56 µg/mL (≈ 2.67 µM) against Pseudomonas aeruginosa; 1.56 µg/mL (≈ 2.67 µM) in the series with Staphylococcus aureus [3]; 1.56 µg/mL (≈ 2.67 µM) in the series on Listeria monocytogenes; 1.56 µg/mL (≈ 2.67 µM) in the series with Salmonella typhi; 1.56 µg/mL (≈ 2.67 µM) against Bacillus cereus; 3.12 µg/mL (≈ 5.35 µM) in the series with Escherichia coli. Further, the MIC in the series with Candida albicans stood at 12.5 µg/mL (≈ 21.4 µM); in the series with Shigella flexneri, 6.25 µg/mL (≈ 10.7 µM).

As for `CCOC(=O)C1(C(=O)OCC)C[C@@H](c2c[nH]c3ccc(OC)cc23)O[C@H]1c1cn(-c2ccccc2)nc1-c1ccc(Cl)cc1`, in series [2], the viability was 88.8%.

Turning to `CCOC(=O)C1(C(=O)OCC)C[C@@H](c2c[nH]c3ccc(F)cc23)O[C@H]1c1cn(-c2ccccc2)nc1-c1ccc(C)cc1`, the viability in [2] was determined as 96.5%.

Consider `CCOC(=O)C1(C(=O)OCC)C[C@@H](c2c[nH]c3ccc(OC)cc23)O[C@H]1c1cn(-c2ccccc2)nc1-c1ccc(F)cc1`, for which the viability in series [2] came to 94.8%.

Regarding `CCOC(=O)C1(C(=O)OCC)C[C@@H](c2c[nH]c3ccc(OC)cc23)O[C@H]1c1cn(-c2ccccc2)nc1-c1ccc(C)cc1`, in series [2], the viability turned out to be 88.9%.

As for `CCOC(=O)C1(C(=O)OCC)C[C@@H](c2c[nH]c3ccccc23)O[C@H]1c1cn(-c2ccccc2)nc1-c1ccc(C)cc1`, in series [2], the viability turned out to be 95.3%.

As for `CCOC(=O)C1(C(=O)OCC)C[C@@H](c2c[nH]c3ccccc23)O[C@H]1c1cn(-c2ccccc2)nc1-c1ccc(OC)cc1`, the viability in [2] was found to be 94.3%.

For `CCOC(=O)C1(C(=O)OCC)C[C@@H](c2c[nH]c3ccc(F)cc23)O[C@H]1c1cn(-c2ccccc2)nc1-c1ccc(OC)cc1`, in series [2], the viability was found to be 94.6%.

For the compound `CCOC(=O)C1(C(=O)OCC)C[C@@H](c2c[nH]c3ccc(C)cc23)O[C@H]1c1cn(-c2ccccc2)nc1-c1ccc(F)cc1`, the viability in series [2] was 99.2%.

In the case of `CCOC(=O)C1(C(=O)OCC)C[C@@H](c2c[nH]c3ccc(C)cc23)O[C@H]1c1cn(-c2ccccc2)nc1-c1ccc(C)cc1`, in [2], the viability was found to be 94.2%.

For the compound `CCOC(=O)C1(C(=O)OCC)C[C@@H](c2c[nH]c3ccc(OC)cc23)O[C@H]1c1cn(-c2ccccc2)nc1-c1ccccc1`, the viability in [2] is 90.1%.

On to `CCOC(=O)C1(C(=O)OCC)C[C@@H](c2c[nH]c3ccc(F)cc23)O[C@H]1c1cn(-c2ccccc2)nc1-c1ccc(Cl)cc1`, for which the viability in series [2] came to 99.1%.

Take `CCOC(=O)C1(C(=O)OCC)C[C@@H](c2c[nH]c3ccc(Cl)cc23)O[C@H]1c1cn(-c2ccccc2)nc1-c1ccc(F)cc1`: the viability in series [2] was 90.5%.

For the compound `CCOC(=O)C1(C(=O)OCC)C[C@@H](c2c[nH]c3ccc(OC)cc23)O[C@H]1c1cn(-c2ccccc2)nc1-c1ccc(OC)cc1`, the viability in [2] came out at 90.1%.

Consider `CCOC(=O)C1(C(=O)OCC)C[C@@H](c2c[nH]c3ccc(C)cc23)O[C@H]1c1cn(-c2ccccc2)nc1-c1ccc(Cl)cc1`, for which, in series [2], the viability turned out to be 92.3%.

`Clc1cccc(-n2nc(C3CCNCC3)cc2/C=C/c2c[nH]c3ccc(Cl)cc23)c1` gave an MIC against Staphylococcus aureus [1] of 1 µg/mL (≈ 2.29 µM).

As for `CC1(C)S[C@@H]2[C@H](NC(=O)[C@H](N)c3ccc(O)cc3)C(=O)N2[C@H]1C(=O)O` [AMOXICILLIN], the MIC with Pseudomonas aeruginosa, against Staphylococcus aureus [3], against Listeria monocytogenes, with Salmonella typhi, against Bacillus cereus and in the series on Escherichia coli was 3.12 µg/mL (≈ 8.55 µM) each time. In addition, the MIC against Candida albicans amounted to 6.25 µg/mL (≈ 17.1 µM); against Shigella flexneri, 3.12 µg/mL (≈ 8.55 µM).

With `OC(Cn1cncn1)(Cn1cncn1)c1ccc(F)cc1F` [FLUCONAZOLE], the MIC in the series on Candida albicans amounted to 6.25 µg/mL (≈ 20.4 µM).

What is called MIC is the smallest concentration in the dilution series that meets the test's criterion for growth inhibition.
